In patent US20260207777A1, “IMPROVED PEPTIDE INHIBITORS OF P53 BINDING PROTEIN 53BP1” (KAMAU THERAPEUTICS, INC., priority 2022, published 2026):

Columns and labels:
CD34+ HSPCs [1] = test: editing of CD34+ HSPCs with purified i53 variant proteins and HBB-UBC-GFP AAV donor; flow cytometry; type: cell-based, human; conditions: for increase of % HDR over DM: HBB-UBC-GFP AAV MOI 1250, protein 0.4 mg/mL, GFP integration in live cells, L67R/L67H value is the average of both; for increase in levels of GFP integration over control edited without protein: HBB-UBC-GFP AAV MOI 2500, average across all concentrations tested (0.1-0.8 mg/mL) and of L67R and L67H
Description: (§1) Chemically-modified single guide RNAs (sgRNAs) used to edit CD34+ HSPCs at the HBB locus were purchased from Synthego. The sgRNA sequences were modified by adding 2′-O-methyl-3′-phosphorothioate at the three terminal nucleotides of the 5′ and 3′ ends. The target sequence for the HBB sgRNA is as follows: HBB: 5′[…]-3′ (SEQ ID NO: 74). Cas9 protein (SpyFi Cas9) was purchased from Aldevron. The RNPs were complexed at a Cas9:sgRNA molar ratio of 1:2.5 at 25° C. for 10-15 min prior to electroporation. Cells were collected, counted, and pelleted at 180 g×7 min. The cell pellets were resuspended in Maxcyte buffer with complexed RNPs and electroporated using a Maxcyte EXPERT ATx Nucleofector. After electroporation cells were plated at 3.5×10^5 cells/mL in media supplemented with cytokines and the desired AAV donor added at 5.0×10^2-2.5×10^4 vector genomes/cell. 24 h after nucleofection, cells were spun down, washed once with media, and seeded into AAV-free media at a density of 3.5×10^5 cells/mL.
(§2) CD34+ HPSCs were edited with protein variants 3 days post thaw and were harvested 2 days post nucleofection for NGS analysis or 3-5 days post nucleofection for GFP expression analysis. Editing reactions with proteins at a given concentration were repeated in duplicate or triplicate (either using the same CD34+ HSPC donor or across multiple donors).
Rates of targeted integration of the HBB UBC GFP donor were measured using a Beckman Coulter CytoFLEX. DAPI (Miltenyi Biotec) was used to discriminate live and dead cells. Flow cytometry data were analyzed using FlowJo 10 software.

53BP1 Tudor domain = 53BP1 Tudor domain (Homo sapiens, UniProt Q12888); test: Bio-Layer Interferometry (BLI) with immobilized 53BP1 Tudor domain; conditions: biotin-labeled immobilized 53BP1 Tudor domain; 1:1 binding model
Sequence of 53BP1 Tudor domain (Q12888 1484-1603): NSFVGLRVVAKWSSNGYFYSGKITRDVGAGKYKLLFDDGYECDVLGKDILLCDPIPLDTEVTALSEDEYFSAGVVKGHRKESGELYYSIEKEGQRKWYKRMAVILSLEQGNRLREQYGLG
Description: Data were collected using an Octet R8 system (Sartorius). Purified 53BP1 Tudor domain was labeled at exposed primary amine groups with NHS-biotin using ChromaLINK NHS-Biotin protein labeling kit (Vector Laboratories). 1 equivalent of chromalink biotin was incubated with the 53BP1 Tudor domain for 2 hours and buffer exchanged into fresh PBS. Labeling efficiency was calculated to be approximately 1 biotin per molecule of 53BP1 Tudor domain. Octet SA Biosensor tips (Sartorius) were incubated with biotin-labeled 53BP1 Tudor domain (ligand) for 60-80 seconds. The labeled tip was then dipped in 1× binding buffer (Sartorius) for 60 seconds to remove excess ligand and achieve baseline. […] A range of analyte concentrations were tested from a highest to lowest concentration in nM (i.e. 200, 100, 50, 25, 12.5, 6.25, 3.125). The tips were then introduced to 1× binding buffer for 5 minutes and the response was continuously monitored to detect dissociation. A dissociation constant (KD) was calculated using a 1:1 binding model and the on-rate (ka) and off-rate […] were calculated as a change in response (nm) over time (sec).

CD34+ HSPCs [2] = test: validation of individual i53 variants via lentiviral expression; GFP integration by flow cytometry (HBB-UBC-GFP AAV); type: cell-based, human; conditions: HBB-UBC-GFP AAV MOI=1250
Text: Sequences of individual i53 variants of interest were cloned into the lentiviral-based expression plasmid described above. Hits were validated either as pooled “validation libraries” (variant and control plasmids manually mixed to generate a pool of 5-25 variants) or individually. Lentivirus generated from these plasmids was used to transduce CD34+ HSPC cells at MOIs of 0.5-1 at day 1 post thaw. […] Cells transduced with pooled validation libraries were edited in triplicate or quadruplet; cells transduced with individual variants were edited in duplicate.
For individual testing of variants, rates of integration of the HBB-UBC-GFP donor were measured using a Beckman Coulter CytoFLEX. DAPI (Miltenyi Biotec) was used to discriminate live and dead cells. mCherry expression was used to differentiate transduced cells from untransduced cells and rates of GFP integration were compared between the two populations to quantify the impact of lentiviral-based variant expression on HDR rates. Flow cytometry data were analyzed using FlowJo 10 software.

CD34+ HSPCs [3] = test: editing of CD34+ HSPCs with purified i53 variant proteins and HBB-SNP AAV donor; NGS of editing outcomes; type: cell-based, human; conditions: for increase of % HDR over control edited without protein: FIG. 13, average across all concentrations (0.1, 0.2, 0.4 mg/mL) and of L67R and L67H; for increase in levels of HDR corrected alleles over DM / impact on % NHEJ: protein 0.4 mg/mL; for increase in levels of HDR corrected alleles over DM: L67R/L67H value is the average of both; for levels of % HDR corrected alleles: HBB-SNP AAV MOI 312.5 with protein 0.4 mg/mL, compared with 2500 MOI alone (8x the amount of AAV); for impact on % NHEJ: HBB-SNP AAV MOIs 312.5 and 2500
Description: as §1, §2
24 h after nucleofection, cells were spun down, washed with media, and seeded into AAV and DNAPKi-free media at a density of 3.5×10^5 cells/mL.
The frequency of homology directed repair (HDR) and other editing outcomes at HBB were measured using Next Generation Sequencing (NGS). An NGS assay was developed to determine the frequency of at the HBB locus by quantifying the total number of alleles that have been either: (1) not edited (% WT), (2) changed by HDR to incorporate sequence differences present in the AAV repair template (% HR), or (3) mutated during the genome correction process resulting in a gene that produces mutant β-globin (% INDELs).
For this assay, genomic DNA was harvested from cells using a Quick-DNA 96 Plus Kit (Zymo Research). The DNA concentration was measured using a Qubit 1×dsDNA BR assay kit (ThermoFisher). Purified genomic DNA was then used to amplify the HBB locus via polymerase chain reaction (PCR). The PCR products were diluted using nuclease-free water to serve as the template DNA for targeted NGS library prep. A second PCR with primers carrying partial Illumina adapters was performed to amplify a 142 base pair sequence that includes the region of the HBB locus that is to be corrected during the genome correction process. The PCR products were diluted again to serve as templates in a third PCR reaction using Nextera XT index primers. This third PCR reaction was used to assign unique identifiers to each sample and to add the full length adapter sequences necessary for Illumina sequencing. The size of the PCR products was assessed on an Agilent BioAnalyzer. PCR products were then pooled, purified using a Qiagen PCR purification kit, and quantified using PicoGreen in order to ready the PCR products for sequencing.
Based on the PicoGreen concentration, the library of pooled PCR products was diluted to a final concentration of 4 nM. Sequencing was performed on a MiSeq system using an Illumina MiSeq sequencing reagent kit (V2, 300 cycles). A 10% PhiX control library was added to the sample library to improve sequence diversity and to allow for error rate measurements. The library was denatured and loaded at […] onto the sequencing reagent cartridge. The sequencing entails paired-end 150 base pair reads and dual indexing reads. The sequencing data was demultiplexed based on the sample indexes provided and FASTQ files for each sample are generated.
The FASTQ files were processed using the CRISPResso2 pipeline^3. The data was reported as % WT, % corrected by HR, and % INDELs. […]

CD34+ HSPCs [4] = test: DNA damage response (DDR) markers yH2AX and p21 in edited HSPCs; conditions: protein 0.8 mg/mL; any given MOI (78.125-2500); 24 h post nucleofection
Description: In order to quantify the induction of the DNA damage response (DDR) pathways, a subset of edited cells was harvested 24 h post nucleofection to quantify DDR markers p21 and yH2AX^5.

Substance | increase of % HDR over DM (CD34+ HSPCs [1]) | increase in levels of GFP integration over control edited without protein (CD34+ HSPCs [1]) | rate of binding compared to parent i53 (53BP1 Tudor domain) | rates of GFP integration in mCherry+ live cells in relation to mCherry- control cells, compared with i53 and DM (CD34+ HSPCs [2]) | increase of % HDR over control edited without protein (CD34+ HSPCs [3]; HBB-SNP AAV MOI 312.5) | increase of % HDR over control edited without protein (CD34+ HSPCs [3]; HBB-SNP AAV MOI 2500) | increase in levels of HDR corrected alleles over DM (CD34+ HSPCs [3]; HBB-SNP AAV MOI 312.5) | levels of % HDR corrected alleles (CD34+ HSPCs [3]) | increase in levels of HDR corrected alleles over DM (CD34+ HSPCs [3]; HBB-SNP AAV MOI 2500) | impact on % NHEJ (CD34+ HSPCs [3]) | p21 response (CD34+ HSPCs [4]) | yH2AX response (CD34+ HSPCs [4])
L67H: i53 variant with His at position 67 | 69% | 70% | measurably increased rate of binding compared to parent i53 | higher rates of GFP integration | 62% | 27% | 56% | approaching those using 2500 MOI alone | 44% | more significant impact on % NHEJ relative to i53 |  | 
L67R: i53 variant with Arg at position 67 | 69% | 70% | measurably increased rate of binding compared to parent i53 | higher rates of GFP integration | 62% | 27% | 56% | approaching those using 2500 MOI alone | 44% | more significant impact on % NHEJ relative to i53 | not found to significantly increase | not found to significantly increase
